According to article PMC6309603 (Molecular diversity, 2018):

Experiments:
AChE [1] = target: T1, AChE (Homo sapiens, UniProt P22303); experiment: biochemical
BChE = BChE (Homo sapiens, UniProt P06276); experiment: biochemical
AChE [2] = target: T1, AChE; experiment: Kinetic study of AChE inhibition; assay type: biochemical

T1 sequence (P22303 32-614): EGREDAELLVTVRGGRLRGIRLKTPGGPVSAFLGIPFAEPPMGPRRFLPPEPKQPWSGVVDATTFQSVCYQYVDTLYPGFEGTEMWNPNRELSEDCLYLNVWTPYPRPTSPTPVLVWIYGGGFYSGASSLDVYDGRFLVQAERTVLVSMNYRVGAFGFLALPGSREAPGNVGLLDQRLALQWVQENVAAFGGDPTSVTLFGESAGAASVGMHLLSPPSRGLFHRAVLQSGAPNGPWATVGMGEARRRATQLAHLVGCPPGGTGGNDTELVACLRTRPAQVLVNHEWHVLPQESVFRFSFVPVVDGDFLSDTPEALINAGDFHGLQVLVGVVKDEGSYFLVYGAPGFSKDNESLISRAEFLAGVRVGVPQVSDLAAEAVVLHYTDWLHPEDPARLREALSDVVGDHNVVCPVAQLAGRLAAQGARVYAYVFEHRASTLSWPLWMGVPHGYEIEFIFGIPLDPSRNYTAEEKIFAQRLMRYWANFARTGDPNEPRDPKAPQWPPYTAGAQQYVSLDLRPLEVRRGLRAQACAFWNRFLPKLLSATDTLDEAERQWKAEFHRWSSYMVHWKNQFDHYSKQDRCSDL
BChE, sequence (P06276 29-602): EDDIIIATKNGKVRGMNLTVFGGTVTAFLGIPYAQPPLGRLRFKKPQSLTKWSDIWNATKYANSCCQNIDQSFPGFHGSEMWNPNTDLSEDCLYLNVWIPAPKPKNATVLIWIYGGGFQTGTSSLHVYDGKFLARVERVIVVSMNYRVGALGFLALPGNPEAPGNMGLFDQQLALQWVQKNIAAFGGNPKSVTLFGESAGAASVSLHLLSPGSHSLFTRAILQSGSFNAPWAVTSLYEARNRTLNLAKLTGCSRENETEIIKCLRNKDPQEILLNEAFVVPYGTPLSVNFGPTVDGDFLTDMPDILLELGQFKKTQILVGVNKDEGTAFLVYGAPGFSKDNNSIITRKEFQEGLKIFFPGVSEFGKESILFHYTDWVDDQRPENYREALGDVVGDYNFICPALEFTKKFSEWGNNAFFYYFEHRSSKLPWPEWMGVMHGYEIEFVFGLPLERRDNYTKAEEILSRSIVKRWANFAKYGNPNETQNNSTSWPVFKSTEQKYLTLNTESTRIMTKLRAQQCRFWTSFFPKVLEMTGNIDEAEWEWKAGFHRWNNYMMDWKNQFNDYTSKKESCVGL

O=C(/C=C/c1ccc(OCCN2CCCC2)cc1)c1cc2ccccc2oc1=O [Compound 5e, (E)-3-(3-(4-(2-(pyrrolidin-1-yl)ethoxy)phenyl)acryloyl)-2H-chromen-2-one]
IC50 (AChE [1]): 150 ± 10 nM | inhibitory activity against AChE (in words) (AChE [1]): potent inhibitory activity | selectivity over BChE (in words) (AChE [1]): high selectivity | Selectivity for AChE (AChE [1]; IC50 (BChE)/IC50 (AChE)): 27.40 | IC50 (BChE): 4110 ± 160 nM | Ki (AChE [2]): 110 nM | non-competitive constant (Ki′) (AChE [2]; AChE, substrate acetylthiocholine iodide, pH 7.4, 30 °C): 190 nM | inhibition mechanism against AChE (AChE [2]; Lineweaver-Burk analysis): mixed-type inhibition
